The values that follow come from patent US20060099235A1, “Medical devices and compositions useful for treating or inhibiting restenosis” (Medtronic Vascular, Inc., priority 2004, published 2006).

For series [1], the system named is human coronary artery smooth muscle cells (hCASMCs). The experiment in a line: CellTiter-Glo Luminescent Cell Viability (proliferation) assay, 3-day exposure. Format: cell-based. How it is done: (§1) Leptomycin B's anti-proliferative efficacy was tested at different concentrations (0.01 nM, 0.1 nM, 1.0 nM, 10.0 nM, 100 nM and 1000 nM) using a three day exposure to hCASMC. The same experiment was performed twice at two separate times to ascertain leptomycin's effect on cell proliferation using a cell viability assay, and the cell phenotype through a qualitative observation of cell morphology following the 3-day exposure to leptomycin B.
The CellTiter-Glo® Luminescent Cell Viability Assay (Promega Corporation, Madison, Wis.) is a method of determining the number of viable cells in culture based on the quantitation of ATP, as an indicator of metabolically active cells (proliferating). A single reagent is added to cells directly in culture, this reagent lyses the cells and provides the luciferase enzyme that reacts with the liberated ATP to create a luminescent signal.
Twenty-four well plates were seeded with hCASMC at 5×10^3 cells per well (n=3) using methods know to those skilled in the art of cell culture. For example and not intended as a limitation: Materials • 1. Human coronary smooth muscles cells (HCASMC) are obtained from Clonetics, a division of Cambrex, Inc. • 2. HCASMC basal media, supplied by Clonetics and supplemented with fetal bovine serum, insulin, hFGF-B (human fibroblast growth factor) hEGF (human epidermal growth factor). • 3. Leptomycin B was purchased from LC Laboratories. Wobum, Mass., USA catalogue number L-6100 • 4. Absolute methanol • 5. Twenty-four well polystyrene tissue culture plates
Dilutions of the drug were made in serum-free cell culture media from the stock solution. A volume of 100 μL of each dilution was added to designated wells. […]
The CellTiter-Glo® Luminescent Cell Viability Assay (Promega Corporation, Madison, Wis.) was performed to assess percent viability. The CellTiter-Glo® Luminescent Cell Viability Assay is a homogeneous method of determining the number of viable cells in culture based on quantitation of the ATP present, which signals the presence of metabolically active cells. […]

Series [2] has the same test system. The experiment in a line: Microscopic evaluation of cell morphology after 3-day exposure. The series is classed as cell-based. The note with it: hCASMC, 3 days. The method, then: as §1
The evaluation of cell phenotype on drug-treated wells was performed by optical microscopy observation and capture of representative images at 200× (total magnification). Microscopic evaluation and pictures were performed before the proliferation assay was done on the 24-well drug-treated plate.
Representative microphotographs (See FIGS. 8-14) of cells exposed to different concentrations of leptomycin B for a period of three days. HCASMCs cultured in the absence of the drug (FIG. 8) reached a ˜90% confluency with the expected healthy phenotype at three days (duration of the assay), providing an adequate control.

`CCC(=C/[C@H](C)C/C=C/C(C)=C/[C@@H](C)C(=O)[C@@H](C)[C@H](O)[C@@H](C)C/C(C)=C/C(=O)O)/C=C/[C@@H]1OC(=O)C=C[C@@H]1C` [leptomycin B, 2,10,12,16,18-nonadecapentaenoic acid]: the “effect on human coronary artery smooth muscle cell proliferation” value in series [1] (0.01-1000 nM, two trials (FIGS. 6 and 7)) was “inhibitory effect”. Further, the “concentration showing inhibitory effect on hCASMC proliferation in vitro” value in series [1] (concentrations as low as) was at least 1 nM. The “nature of the effect (cytostatic vs cytotoxic)” value in series [1] (hCASMC) was “predominantly cytostatic rather than cytotoxic”. Further, the “microscopic signs of cytotoxicity” value in series [2] (0.01-1000 nM) is on record as “No microscopic signs of cytotoxicity”. Further, the level of confluence result in series [2] (200x optical microscopy, control ~90% confluency) is on record as “decreased level of confluence”.
